Assay results taken from the supplement of paper PMC10627819.

Key:
Conditions in all cases: main component drawn
B. subtilis 168 [1] = experiment: fitness (endpoint OD595 vs no drug) (fraction); higher = more growth
Method in brief: (§1)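 Growth medium was TSB, LB Lennox or CY, and plates were kept at 37 °C. Inoculation was at OD595 0.01 in 384-well plates, at 30 µl per well or 55 µl for S. pneumoniae. OD595 was monitored every 30 min for 14 h and background-subtracted using the first reading. Fitness is the optical density on entering stationary phase divided by the robust mean of no-drug controls, with values capped at 1.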

S. pneumoniae D39V [2] = experiment: as above
Method in brief: as §1

S. aureus Newman = experiment: Bliss interaction score (quartile over a dose matrix) (fitness difference); higher = more antagonism (negative = synergy)
Method in brief: (§2)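 The Bliss score is observed minus expected fitness, where expected fitness is the product of the single-drug fitness values inferred from the combination data. Fitness is the OD595 at the onset of stationary phase over the plate's robust no-drug mean, capped at 1. Scores are summarised by quartiles over technical, biological and donor/recipient replicates.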

B. subtilis 168 [3] = experiment: as above
Method in brief: as §2

S. aureus DSM 20231 = experiment: as above
Method in brief: as §2

S. pneumoniae D39V [4] = experiment: as above
Method in brief: as §2
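Wherever Bliss interaction score (quartile over a dose matrix) is given: first quartile when negative (synergy) and third quartile when positive (antagonism).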
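Wherever fitness (endpoint OD595 vs no drug) is given: OD595 on entry to stationary phase over no-drug wells; at most 1.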

C[C@H]1c2cccc(O)c2C(=O)C2=C(O)[C@]3(O)C(=O)C(C(N)=O)=C(O)[C@@H](N(C)C)[C@@H]3[C@@H](O)[C@@H]21 [Doxycycline] + CC(C1CCC(C(O1)OC2C(CC(C(C2O)OC3C(C(C(CO3)(C)O)NC)O)N)N)N)NC [Gentamicin]
Conditions | fitness
B. subtilis 168 [1], first compound 0.02 µg/mL, partner 0.0625 µg/mL | 0.896
B. subtilis 168 [1], first compound 0.04 µg/mL, partner 0.0625 µg/mL | 0.747
B. subtilis 168 [1], first compound 0.08 µg/mL, partner 0.25 µg/mL | 0.0845
S. pneumoniae D39V [2], first compound 0.0155 µg/mL, partner 2 µg/mL | 0.885
S. pneumoniae D39V [2], first compound 0.0155 µg/mL, partner 4 µg/mL | 0.857
S. pneumoniae D39V [2], first compound 0.0155 µg/mL, partner 8 µg/mL | 0.824

fitness, S. pneumoniae D39V [2], one replicate
Conditions | partner 2 µg/mL | partner 4 µg/mL | partner 8 µg/mL
first compound 0.003875 µg/mL | ≥ 1 | ≥ 1 | ≥ 1
first compound 0.00775 µg/mL | ≥ 1 | 0.995 | 0.967

Conditions | Bliss interaction score
B. subtilis 168 [3] | 0.213
S. aureus DSM 20231 | 0.067
S. aureus Newman | 0.0873
S. pneumoniae D39V [4] | -0.208

C[C@H]1c2cccc(O)c2C(=O)C2=C(O)[C@]3(O)C(=O)C(C(N)=O)=C(O)[C@@H](N(C)C)[C@@H]3[C@@H](O)[C@@H]21 [Doxycycline] + CCC(C)C1C(=O)NC(=C)C(=O)NC(C(=O)NC(CSCC(C(=O)N1)NC(=O)/C(=C/C)/NC(=O)C(C(C)CC)N)C(=O)NC2C(SCC(NC(=O)CNC(=O)C3CCCN3C2=O)C(=O)NC(CCCCN)C(=O)NC4C(SCC(NC(=O)CNC(=O)C(NC(=O)C(NC(=O)C(NC(=O)CNC4=O)C)CC(C)C)CCSC)C(=O)NC(CC(=O)N)C(=O)NC(CCSC)C(=O)NC(CCCCN)C(=O)NC5C(SCC6C(=O)NC(C(=O)NC(CSC(C(C(=O)N6)NC(=O)C(NC5=O)C)C)C(=O)NC(CO)C(=O)NC(C(C)CC)C(=O)NC(CC7=CN=CN7)C(=O)NC(C(C)C)C(=O)NC(=C)C(=O)NC(CCCCN)C(=O)O)CC8=CN=CN8)C)C)C)CC(C)C [Nisin]
Conditions | fitness
B. subtilis 168 [1], first compound 0.02 µg/mL, partner 0.5 µg/mL | 0.836
B. subtilis 168 [1], first compound 0.02 µg/mL, partner 1 µg/mL | 0.809
B. subtilis 168 [1], first compound 0.02 µg/mL, partner 2 µg/mL | 0.476
B. subtilis 168 [1], first compound 0.04 µg/mL, partner 0.5 µg/mL | 0.755
B. subtilis 168 [1], first compound 0.04 µg/mL, partner 1 µg/mL | 0.741
B. subtilis 168 [1], first compound 0.04 µg/mL, partner 2 µg/mL | 0.403
B. subtilis 168 [1], first compound 0.08 µg/mL, partner 0.5 µg/mL | 0.61
B. subtilis 168 [1], first compound 0.08 µg/mL, partner 1 µg/mL | 0.541
B. subtilis 168 [1], first compound 0.08 µg/mL, partner 2 µg/mL | 0.0887
S. pneumoniae D39V [2], first compound 0.0155 µg/mL, partner 0.4275 µg/mL | 0.935
S. pneumoniae D39V [2], first compound 0.0155 µg/mL, partner 0.855 µg/mL | 0.803
S. pneumoniae D39V [2], first compound 0.0155 µg/mL, partner 1.6 µg/mL | 0.192
S. pneumoniae D39V [2], first compound 0.0155 µg/mL, partner 1.71 µg/mL | 0.0645
S. pneumoniae D39V [2], first compound 0.0155 µg/mL, partner 3.2 µg/mL | 0.017
S. pneumoniae D39V [2], first compound 0.0155 µg/mL, partner 6.4 µg/mL | 0.0088
S. pneumoniae D39V [2], first compound 0.031 µg/mL, partner 0.4275 µg/mL | 0.89
S. pneumoniae D39V [2], first compound 0.031 µg/mL, partner 0.855 µg/mL | 0.596
S. pneumoniae D39V [2], first compound 0.031 µg/mL, partner 1.71 µg/mL | 0.0413
S. pneumoniae D39V [2], first compound 0.062 µg/mL, partner 0.4275 µg/mL | 0.846
S. pneumoniae D39V [2], first compound 0.062 µg/mL, partner 1.71 µg/mL | 0.0711

fitness, one replicate
Conditions | partner 1.25 µg/mL | partner 1.6 µg/mL | partner 2.5 µg/mL | partner 3.2 µg/mL | partner 4 µg/mL | partner 5 µg/mL | partner 6.4 µg/mL | partner 8 µg/mL | partner 16 µg/mL
B. subtilis 168 [1], first compound 0.02 µg/mL | 0.915 | 0.287 | 0.481 | 0.0387 | 0.0411 | 0.0601 | 0.0419 | 0.0354 | 0.0177
B. subtilis 168 [1], first compound 0.04 µg/mL | 0.935 | 0.358 | 0.464 | 0.0224 | 0.137 | 0.0251 | 0.035 | 0.0271 | 0.024
B. subtilis 168 [1], first compound 0.08 µg/mL | 0.594 | 0.0173 | 0.165 | 0.0251 | 0.0169 | 0.0318 | 0.0245 | 0.0228 | 0.0199
S. pneumoniae D39V [2], first compound 0.003875 µg/mL | – | 0.0092 | – | 0 | – | – | 0.0176 | – | –
S. pneumoniae D39V [2], first compound 0.00775 µg/mL | – | 0.0172 | – | 0 | – | – | 0.0097 | – | –
S. pneumoniae D39V [2], first compound 0.031 µg/mL | – | 0.222 | – | 0.0345 | – | – | 0 | – | –
S. pneumoniae D39V [2], first compound 0.062 µg/mL | – | 0.0897 | – | 0.0057 | – | – | 0.0088 | – | –

Conditions | Bliss interaction score
B. subtilis 168 [3] | 0.0503
S. aureus DSM 20231 | -0.0392
S. aureus Newman | 0.0561
S. pneumoniae D39V [4] | -0.161
